Laboratory results reported in patent US10285400B2, “Disinfectant composition containing quaternary ammonium compounds” (LONZA, INC., priority 2014, dated 2019).

Legend:
[1] = system: Staphylococcus aureus (Sa); assay: OECD Quantitative Method for Evaluating Bacterial Activity of Microbiocides Used on Hard Non-Porous Surfaces; type: cell-based; details: diluted with 375 ppm hard water, test concentration as in test composition
From the text: (§1) Bardac 2250, containing of 50% didecyldimethylammonium chloride and 10% ethanol from Lonza, was used for the formulations.

[2] = system: Pseudomonas aeruginosa (Pa); assay: as above; type: cell-based; details: diluted with 375 ppm hard water, test concentration as in test composition
From the text: as §1

SMILES	# Log Reduc. 5 min contact Sa [1]	# Log Reduc. 5 min contact Pa [2]
CCCCCCCCCC[N+](C)(C)CCCCCCCCCC.[Cl-] [Bardac 22, didecyldimethylammonium chloride]	ineffective	ineffective
OO [Sample 1, hydrogen peroxide]	0.3 Log	1.6 Log
OO [Sample 2, hydrogen peroxide]	3.2 Log	1.8 Log
CCCCCCCCCC[N+](C)(C)CCCCCCCCCC.[Cl-] [Sample 3, didecyldimethylammonium chloride]	–	3.3 Log
OO [hydrogen peroxide]	ineffective	ineffective
